Reference: patent publication US6767895B2 (priority 2000, dated 2004)

Tests used:
[1] = in vivo
[2] = test system: mice; conditions: mouse, in vivo
[3] = test system: goldfish; conditions: in vivo

Substance | activity in formalin test (licking time) [1] | effects observed shortly after injection in mice [2] | effects observed shortly after injection in goldfish [3]
Gly-Xaa3-Ser-Phe-Cys-Lys-Ala-Asn-Gly-Lys-Xaa3-Cys-Ser-Xaa5-His-Ala-Asp-Cys-Cys-Asn-Cys-Cys-Leu-Ser-Gly-Ile-Cys-Lys-Xaa3-Ser-Thr-Asn-Val-Ile-Leu-Xaa3-Gly-Cys-Ser-Thr-Ser-Ser-Phe-Phe-Arg-Ile [R11.14] | active |  | 
Xaa2-Cys-Lys-Thr-Asn-Lys-Met-Ser-Cys-Ser-Leu-His-Xaa1-Xaa1-Cys-Cys-Arg-Phe-Arg-Cys-Cys-Phe-His-Gly-Lys-Cys-Gln-Thr-Ser-Val-Phe-Gly-Cys-Xaa4-Val-Asp-Xaa3 [R11.19] |  | running and jumping in short duration immediately followed by convulsion with back legs kicking, copius urination, coma and death | gasping (gills opening widely), followed by swimming backward or in circular and/or vertical motion, imbalanced swimming (body tilting), lying almost flat near the bottom and death
